Experimental data from US20250041313A1, “COMBINATION THERAPY FOR TREATMENT OF CANCER” (CITY OF HOPE, priority 2023, published 2025).

What was measured:
[1] = tested on: SBC3 cells; experiment: Imaris quantification of mitochondrial and nuclear areas/morphology; format: cell-based, human; conditions: SBC3
Method: (§1) Imaris 9.9.0 (Bitplane, AG), with Surfaces and Cells modules, was used to generate mitochondria morphology data from 2D images and 2D Z-stack subsets. Surfaces were used to evaluate individual mitochondria from cell monolayers and spheroids. Detection parameters were optimized for visible mitochondria and nuclei in each group with varying signal intensities. Roundness ratios were calculated from Surface generated Bounding Box 00 Length measurements. Object lengths less than 0.1 μm were excluded, and lengths greater than 1.26 μm were separately analyzed as clusters. Thresholds were uniformly applied to roundness ratios to categorize mitochondria morphology as elongated (<0.599), intermediate (≥0.600-0.649), or round/fragmentated (≥0.650). The percentage of cells from total number is based on a ratio. A perfectly round object has a ratio of 1.0. The Cells module was used to detect and quantify mitochondria and nucleus area from cell monolayers. Identical parameters were applied to all groups with cell boundary detection based on mitochondria signals. Imaris includes nuclei in cytoplasm measurements, so mitochondrial area is calculated by subtracting nucleus area from cell cytoplasm area. Abnormal nuclei were excluded (<100 μm^2, >750 μm^2).
MitoTracker Red and Hoechst 33342 were used to validate Teri and Leflu effects on intact mitochondrial morphology in SBC3 and SBC5 cells. M1 and MDIVI1 compounds were used as positive controls because they are promoters of mitochondrial fusion. Mitochondrial and nuclear areas were quantified by analyzing object surface area and intensity in Imaris 9.9.0.

[2] = tested on: SBC5 cells; experiment: as above; format: cell-based, human; conditions: SBC5, 10 μM
Method: as §1
Next, we performed the same analysis with SBC5 cells. […] Mitochondrial elongation in SBC3 cells treated with Teri and Leflu is visible and correlates with Imaris Surface results. […] Although mitochondrial areas of SBC5 cells were not affected by Teri and Leflu treatments, elongations of individual mitochondria were detected with each treatment (FIG. 2I). […] Therefore, it is important to investigate the effects of Teri and Leflu on mitochondrial morphology and cell survival in combination with chemotherapeutic drugs.

[3] = tested on: SCLC; conditions: relapsed / second-line SCLC patients; cited from earlier work
[4] = tested on: SBC5 xenograft; experiment: SBC5 mouse xenograft, Carbo/Leflu study; format: in vivo; conditions: Carbo 50 mg/kg, Leflu 7.5 mg/kg, i.p. twice a week
Method: Athymic nude nu/nu mice were obtained from Charles River, Wilmington, MA, and were acclimated for a week before beginning the experiment. All animal experiments were carried out in accordance with a protocol approved by the Institutional Animal Care and Use Committee COH (IACUC #16004). For treatments, mice were divided into 4 groups with five mice per group and subcutaneously injected into one flank with 2×10^6 SBC3 or SBC5 cells suspensions in 100 μl of PBS. Treatment started on the 14th day when tumors became palpable. Two in vivo studies were done in this project. SBC3 and SBC 5 xenograft with i) vehicle control, ii) […] 50 mg/kg, iii) Leflu 7.5 mg/kg, and iv) […]/Leflu. SBC3 with i) vehicle control, ii) Lur 0.5 mg/kg, iii) Leflu 3.8 mg/kg, and iv) Lur/Leflu. Treatments were given to mice via i.p. twice a week for 6 weeks. Animals were examined daily for signs of tumor growth. Tumors were measured in two dimensions using calipers and body weights were recorded. Animals were photographed on days 1, 5, 10, 15, 20, 25, 30, 35, and 40 after treatment. Tumors were removed on day 40 and photographed. At the end of the study, the mice were euthanized by CO2 asphyxiation followed by cervical dislocation. The tumor weights were compared between groups using an unpaired Student's t-test. […] Mean immunofluorescence intensities were calculated with ZEN 2.3 Lite software.

[5] = tested on: SBC3 xenograft; experiment: SBC3 mouse xenograft, Carbo/Leflu study; format: in vivo
Method: Athymic nude nu/nu mice were obtained from Charles River, Wilmington, MA, and were acclimated for a week before beginning the experiment. All animal experiments were carried out in accordance with a protocol approved by the Institutional Animal Care and Use Committee COH (IACUC #16004). For treatments, mice were divided into 4 groups with five mice per group and subcutaneously injected into one flank with 2×10^6 SBC3 or SBC5 cells suspensions in 100 μl of PBS. Treatment started on the 14th day when tumors became palpable. Two in vivo studies were done in this project. SBC3 and SBC 5 xenograft with i) vehicle control, ii) […] 50 mg/kg, iii) Leflu 7.5 mg/kg, and iv) […]/Leflu. SBC3 with i) vehicle control, ii) Lur 0.5 mg/kg, iii) Leflu 3.8 mg/kg, and iv) Lur/Leflu. Treatments were given to mice via i.p. twice a week for 6 weeks. Animals were examined daily for signs of tumor growth. Tumors were measured in two dimensions using calipers and body weights were recorded. Animals were photographed on days 1, 5, 10, 15, 20, 25, 30, 35, and 40 after treatment. Tumors were removed on day 40 and photographed. At the end of the study, the mice were euthanized by CO2 asphyxiation followed by cervical dislocation. The tumor weights were compared between groups using an unpaired Student's t-test. A portion of the tumor was fixed in 10% buffered formaldehyde solution and paraffin-embedded for immuno-staining. FFPE tumor sections were stained with pDRP Ser^616 antibody. Tumor sections were deparaffinized and rehydrated, followed by heat-mediated antigen retrieval (pH 6, Dako). After permeabilization and blocking, tumor sections were stained with pDRP1 Ser^616 antibody overnight, washed and incubated with Alexa 488 secondary antibody for one hour, mounted and observed on an LSM 880 with a 10×/0.45 NA objective (Carl Zeiss). Immunofluorescent confocal images were acquired for each treatment (magnification:100×). Mean immunofluorescence intensities were calculated with ZEN 2.3 Lite software.

[6] = tested on: SBC3 cells; experiment: CCK-8 cell viability/cytotoxicity assay, 72 h; format: cell-based, human; conditions: SBC3, CCK-8 72 h, fixed concentrations of Teri and Carbo; read-out: IC50, single treatment and combination treatment
Method: The expression levels of DRP1 and DHODH in SCLC lines were compared with non-malignant BEAS 2B cells. […] Previous studies have shown that Leflu and its active metabolite Teri regulate mitochondrial morphology (9,10,26). […] In vitro cytotoxicity effect of Teri and Leflu was tested in a panel of SCLC cell lines. Ten SCLC cell lines were treated with increasing concentrations of each drug for 72 h.
Isobologram and CI50 values were calculated using the Chou-Talalay method and IC50 to find synergism (FIG. 3B).

[7] = tested on: SBC3 cells; experiment: LC-MS of nucleotides, nucleosides and nucleobases in cell pellets; format: cell-based, human; design: unit not given here
Method: These studies were performed by Creative Proteomics in their facility in Shirley, NY. Each sample was placed into 250 μL of 80% methanol. Tissue samples were weighed in 2-mL Eppendorf tubes, and 80% methanol was added at 10 μL per mg of raw tissue. The tissue and cell samples were then homogenized on a MM 400 mill mixer with the aid of two 4-mm metal beads at a shaking frequency of 30 Hz for 2 min and the homogenization step was repeated twice. The samples were placed at −20° C. for 1 h and then centrifuged at 21,000×g for 10 min. The clear supernatants were collected for LC-MS quantitation. Protein content was measured from protein pellets by Bradford protein assays and used to normalize metabolite concentrations from cell pellets. A stock solution contained standard substances of all the targeted nucleotides, nucleosides, and nucleobases were prepared at 200 nmol/mL for each in an internal standard solution of ^13C- and/or ^15N-labeling AMP, ATP, GMP, GTP, UMP, UTP, adenine and adenosine. This solution was serially diluted with the same solution to prepare 10-point calibration solutions in a concentration range of 0.0001 to 50 μM. 10 μL of the supernatant of each sample was mixed with 90 μL of the internal standard solution. 10 μL aliquots of the sample solutions and the standard solutions were injected into a C18 LC column (2.1*150 mm, 1.9 μm) to run UPLC-MRM/MS on a Waters Acquity UPLC system coupled to a Sciex QTRAP 6500 Plus mass spectrometer operated in the negative-ion mode for detection of nucleotides. The mobile phase was a triethylamine buffer (A) and acetonitrile/methanol (1:1) (B) for binary gradient elution (5% to 60% B in 25 min), at 0.25 mL/min and 55° C. For quantitation of nucleosides and nucleobases, 10-μL aliquots of the sample solutions and the standard solutions were injected onto a polar reversed-phase C18 column (2.1*100 mm, 1.6 μm) to run UPLC-MRM/MS on a Waters Acquity UPLC system coupled to a Sciex QTRAP 6500 Plus mass spectrometer operated in the positive-ion mode. The mobile phase was 0.1% formic acid-ammonium formate buffer (A) and methanol (B) for binary gradient elution (0% to 40% B in 15 min), at 0.25 mL/min and 30° C. Concentrations of the detected nucleotides, nucleosides or nucleobases in the UPLC-MRM/MS runs were calculated with internal-standard calibration by interpolating the constructed linear-regression curves of individual compounds, with the analyte-to-internal standard peak area ratios measured from the sample solutions.
The effect of treatment on the concentration of purines and pyrimidines for both cell lines and xenograft were modelled as concentration=Treatment1+Treatment2+Treatment1*Treatment2. For cell lines, Treatment 1-2 were […] and Teri, while for the xenografts—Lur and Leflu respectively. The significance of the effects was ascertained by p-values associated with the coefficients of the model (20). The p-values were FDR corrected to account for repeated testing. The coefficient for the interaction term (Treatment1*Treatment2) and its associated p-value correspond to the synergistic effect of the two treatments. Coefficients and p-values for the rest of the terms indicate significance of each treatment alone. Statistical analysis was conducted in R.

CC(=NNc1c(Cl)cc(Cl)cc1Cl)c1cc(Cl)ccc1O [M1]
Mitochondrial elongation (Airyscan imaging) [1]: moderately affected
effect on mitochondrial or nuclear areas [1]: did not affect

COc1cc(-n2c(=S)[nH]c3ccccc3c2=O)c(Cl)cc1Cl [MDIVI1]
Mitochondrial elongation (Airyscan imaging) [1]: moderately affected
effect on mitochondrial or nuclear areas [1]: did not affect
Mitochondrial area [2]: 419.9±13.26 μm^2

CC[C@@]1(O)C(=O)OCc2c1cc1n(c2=O)Cc2cc3c(CN(C)C)c(O)ccc3nc2-1 [topotecan, Topotecan]
ORR [3]: 24%
median PFS [3]: 3.4 months

carboplatin
final tumor weight (day 40) [4]: 0.64 ± 0.10 g
pDRP1 Ser616 immunofluorescence in tumor sections ([5]; SBC3 xenograft FFPE tumors): significant decrease
reduction in tumor size/weight ([5]; SBC3 xenograft, day 40, vs control): ~58%
average final tumor weight at end of study (day 40) ([5]; SBC3 xenograft, Carbo 50 mg/kg, Leflu 7.5 mg/kg, i.p. twice a week): 0.75 ± 0.10 g
IC50 [6]: 4.12 µM
ATP concentration [7]: 27.92±0.55
UTP concentration [7]: 9.29±0.4
XMP concentration [7]: 0.35±0.18
dATP concentration [7]: 0.17±0.002
dCTP concentration [7]: 0.06±0.004
dm5UTP concentration [7]: 0.44±0.001
xanthosine concentration [7]: 0.094±0.045
